Patent US10889553B2, “Asymmetric triazole benzamide derivatives and the compositions and methods of treatment regarding the same” (NysnoBio Ireland DAC, priority 2017, dated 2021)
pIC50: −log10 of the molar value. Where two headings read alike, the source gives them in different places.

Columns and labels:
[1] = Microsomal stability assay, rat liver microsomes; type: in vitro ADME; settings: pH 7.4; rat liver microsomes 1.0 mg/mL, 1 μM compound, NADPH; read-out: RLM t1/2
Procedure: (§1) Compounds were also tested for metabolic stability in both rat liver microsomes (RLM) and the compounds are tested for human liver microsomes (HLM) and their half-life is calculated (See Tables 5A and 5B). The assay was performed as follows. The total volume for each incubation was 250 μL. A 100 μM DMSO solution of compound (diluted from 10 mM stock solution) was spiked into 50 mM KH2PO4 (pH 7.4) buffer containing liver microsome at a concentration of 1.0 mg/mL. The reaction was initiated by the addition of 50 μL of 1 mM NADPH. The final concentration of each compound was 1 μM (1% DMSO). The positive controls, phenacetin for CYP1A2, diclofenac for CYP2C9, omeprazole for CYP2C19, dextromethorphan for CYP2D6 and midazolam for CYP3A4 were added to a separate tube with the final substrate concentrations of 1 μM (1% DMSO) for evaluating the enzyme activities in the liver microsomes. At 0, 15, 30 and 60 min, an aliquot of 15 μL reaction mixtures were removed and 200 μL of methanol (with internal standard of 25 ng/mL propranolol) was added to quench the reaction. The resulting mixture was centrifuged and supernatant was used for LC-MS/MS analysis.
(§2) The signals for each compound, or the metabolites for the probe substrates and the internal standard were integrated and the peak area ratios to internal standard were generated. Percent parent remaining at a specified timepoint was calculated based on the peak area ratios at time 0 (as 100%) for in vitro metabolic stability studies in liver microsome and hepatocyte. The observed rate constant (kobs) for the metabolism of substrates was calculated by plotting the natural log of percentage substrate remaining versus time of incubation with the slope being kobs. The half-life (T1/2) was calculated according to the following equation: T1/2=[…]

A549 (lung) = experiment: Cancer cell proliferation assay (acid phosphatase); type: cell-based; settings: Homo sapiens; for pIC50: Table 6A, 72 hrs, read-out: A549 IC50
In short: (§3)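 Cells seeded at 4×10^4 cells/ml were incubated overnight at 37° C., 5% CO2, then exposed to compound at varying concentrations in triplicate for 72 hrs. Proliferation was read by acid phosphatase assay (p-nitrophenol phosphate, pH 5.5, 2 hours, 405 nm minus 620 nm) as percent inhibition versus DMSO controls.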

HCT-116 (colon) = experiment: Cancer cell proliferation assay (acid phosphatase); type: cell-based; settings: Homo sapiens; for pIC50: Table 6A, 72 hrs, read-out: HCT-116 IC50
In short: as §3

TOV-21G (ovarian) = experiment: Cancer cell proliferation assay (acid phosphatase); type: cell-based; settings: Homo sapiens, TOV21G; for pIC50: Table 6A, 72 hrs, read-out: TOV-21G IC50
In short: as §3

LS-174T (colon) = experiment: Cancer cell proliferation assay (acid phosphatase); type: cell-based; settings: Homo sapiens, LS174T; Table 6A; 72 hrs
In short: as §3

Calu-6 (lung) = experiment: Cancer cell proliferation assay (acid phosphatase); type: cell-based; settings: Homo sapiens, Table 6A, 72 hrs, read-out: Calu6 IC50
In short: as §3

[2] = Microsomal stability assay, human liver microsomes; type: in vitro ADME; settings: pH 7.4; human liver microsomes 1.0 mg/mL, 1 μM compound, NADPH; read-out: HLM t1/2
Procedure: as §1, §2

| Compound | half-life at 1 μM [1] | pIC50 (A549 (lung); A549, 72 h) | pIC50 (TOV-21G (ovarian); 72 h) | pIC50 (LS-174T (colon)) | pIC50 (Calu-6 (lung)) | further results |
| --- | --- | --- | --- | --- | --- | --- |
| C#Cc1ccc(C(=O)Nc2nc(NC(=O)c3cccc(N=[N+]=[N-])c3)n(-c3ccccc3)n2)cc1 [Compound 2] | 0.683 h | 5.66 | 5.66 |  |  | pIC50 (HCT-116 (colon); HCT-116, 72 h): 3.19 |
| Cc1ccccc1C(=O)Nc1nc(NC(=O)c2ccno2)n(-c2ccccc2)n1 [Compound 7] | 3.98 h |  | < 6.00 |  |  |  |
| Cc1ccccc1C(=O)Nc1nc(NC(=O)c2ccccn2)nn1-c1ccccc1 [Compound 16] | 2.35 h | 5.59 | 5.64 |  |  |  |
| Cc1ccccc1C(=O)Nc1nc(NC(=O)c2cnccn2)n(-c2ccccc2)n1 [Compound 17] | 0.433 h |  | < 6.00 |  |  |  |
| Cc1ccccc1C(=O)Nc1nc(NC(=O)C2CCCN2)nn1-c1ccccc1 (stereo not shown) [Compound 20] | 2.45 h |  | < 6.00 | < 6.00 |  |  |
| Cc1ccc(C(=O)Nc2nc(NC(=O)c3ccc(C)cc3)n(-c3ccccc3)n2)cc1 [Compound 21] | 0.1 h | 5.60 | 5.60 | < 5.60 | < 5.60 |  |
| COc1ccccc1C(=O)Nc1nc(NC(=O)c2ccccc2OC)n(-c2ccccc2)n1 [Compound 23] | 0.35 h | < 5.60 | 5.62 | < 5.60 | < 5.60 |  |
| Cc1ccccc1C(=O)Nc1nc(NC(=O)c2ccccc2C)n(-c2ccc(C(F)(F)F)cc2)n1 [Compound 25] | 6.8 h | 7.40 | > 7.00 | > 6.70 | 6.37 | half-life at 1 μM [2]: 1.18 h; pIC50 (HCT-116 (colon); HCT-116, 72 h): 6.92 |
| Cc1ccccc1C(=O)Nc1nc(NC(=O)c2ccccc2C)n(-c2ccc(C#N)cc2)n1 [Compound 35] | 3.3 h | 5.62 | 5.85 | 5.64 |  |  |
| Cc1ccccc1C(=O)Nc1nc(NC(=O)c2ccccc2C)n(-c2cccc(F)c2)n1 [Compound 39] | 2.22 h | 5.92 | 5.82 | 5.68 | 5.60 |  |
| O=C(Nc1nc(NC(=O)c2ccccn2)n(-c2ccccc2)n1)c1ccccn1 [Compound 41] | 0.283 h | 5.60 | < 5.60 | 5.60 |  |  |
| Cc1ccccc1C(=O)Nc1nc(NC(=O)c2ccccc2C)n(-c2ccc(OC(F)(F)F)cc2)n1 [Compound 42, N,N′-(1-(4-(trifluoromethoxy)phenyl)-1H-1,2,4-triazole-3,5-diyl)bis(2-methylbenzamide)] | 3.85 h |  |  | 6.70 | 7.22 | half-life at 1 μM [2]: > 8.33 h; pIC50 (A549 (lung); A549): 7.52; IC50 (A549 (lung); A549, Table 6C, data of FIG. 2, read-out: IC50 (μM) A549 (lung)): 65 µM; EC50 (A549 (lung); A549, Table 6D, another set of cell proliferation assay): 72 nM; pIC50 (HCT-116 (colon); HCT-116): 7.15; IC50 (HCT-116 (colon); HCT-116, Table 6C, data of FIG. 2, read-out: IC50 (μM) HCT-116 (colon)): 0.08 µM; EC50 (HCT-116 (colon); HCT-116, Table 6D, another set of cell proliferation assay): 87 nM; IC50 (HCT-116 (colon); HCT-116, Table 6E, read-out: Proliferation IC50 (nM) CRC HCT-116): 0.087 µM; pIC50 (TOV-21G (ovarian)): 6.60; IC50 (TOV-21G (ovarian); Table 6C, data of FIG. 2, read-out: IC50 (μM) TOV-21G (ovarian)): 0.15 µM; EC50 (TOV-21G (ovarian); Table 6D, another set of cell proliferation assay): 74 nM; IC50 (TOV-21G (ovarian); Table 6E, read-out: Proliferation IC50 (nM) Ovarian TOV21G): 0.109 µM |
| Cc1ccccc1C(=O)Nc1nc(NC(=O)c2ccccc2C)n(-c2ccc(N3CCCCC3)cc2)n1 [Compound 44] | 0.1 h | 5.70 | 5.72 | 5.60 | < 5.60 |  |
| Cc1ccccc1C(=O)Nc1nc(NC(=O)c2ccccc2C)n(-c2ccc(F)cc2F)n1 [Compound 46] | 1.62 h | 5.60 | 5.62 | 5.60 |  |  |
| Cc1ccccc1C(=O)Nc1nc(NCc2ccccc2)nn1-c1ccc(C(F)(F)F)cc1 [Compound 102] | 0.167 h | < 5.60 | < 5.60 |  |  | pIC50 (HCT-116 (colon); HCT-116, 72 h): 5.60 |
| Cc1ccnc(-c2nc(NC(=O)c3ccccc3C)n(-c3ccccc3)n2)c1 [Compound 124] | 0.717 h | 5.92 | 6.23 |  | 5.85 |  |

More lines, main results first:

| half-life at 1 μM [1] | pIC50 (A549 (lung); A549, 72 h) | pIC50 (TOV-21G (ovarian); 72 h) | pIC50 (LS-174T (colon)) | pIC50 (Calu-6 (lung)) | Compound | further results |
| --- | --- | --- | --- | --- | --- | --- |
| 0.0833 h |  | 5.92 |  |  | Cc1ccccc1C(=O)Nc1nc(NC(=O)c2cccnc2)nn1-c1ccccc1 [Compound 6] |  |
| 2.18 h | 6.55 | 6.01 | 6.03 | 6.54 | Cc1ccccc1C(=O)Nc1nc(NC(=O)c2ccccc2C)n(-c2ccc(F)c(F)c2)n1 [Compound 24] | half-life at 1 μM [2]: 3.4 h |
| 0.967 h | 5.60 | 5.68 | < 6.00 |  | Cc1ccccc1C(=O)Nc1nc(NC(=O)c2ccccc2C)n(-c2ccccc2Cl)n1 [Compound 26] |  |
| 0.233 h | 5.60 | 5.64 | < 5.60 |  | Cc1ccc(-n2nc(NC(=O)c3ccccc3C)nc2NC(=O)c2ccccc2C)cc1 [Compound 31] |  |
| 3.4 h | < 5.60 | < 5.60 | < 5.60 |  | Cc1ccccc1C(=O)Nc1nc(NC(=O)c2ccccc2C)n(-c2ccccc2F)n1 [Compound 32] |  |
| 3.3 h | < 5.60 | < 5.60 |  |  | O=C(Nc1nc(NC(=O)c2ccncc2)n(-c2ccccc2)n1)c1ccncc1 [Compound 33] |  |
| 5.5 h | 5.60 | 5.82 | 5.59 |  | Cc1ccccc1C(=O)Nc1nc(NC(=O)c2ccncc2)nn1-c1ccccc1 [Compound 34] |  |
| 1.05 h | 6.66 | 6.52 | 5.89 | 6.77 | Cc1ccccc1C(=O)Nc1nc(NC(=O)c2ccccc2C)n(-c2cccc(Cl)c2)n1 [Compound 36] | half-life at 1 μM [2]: 2.45 h |
| 0.35 h | 5.64 | 5.72 | 5.62 |  | COc1ccc(C(=O)Nc2nc(NC(=O)c3ccc(OC)cc3)n(-c3ccccc3)n2)cc1 [Compound 37] |  |
| 0.433 h | 5.68 | 5.77 | 5.64 | 5.59 | Cc1cccc(-n2nc(NC(=O)c3ccccc3C)nc2NC(=O)c2ccccc2C)c1 [Compound 38] |  |
| > 8.33 h |  | < 5.60 | < 5.60 |  | O=C(Nc1nc(NC(=O)c2cccnc2)n(-c2ccccc2)n1)c1cccnc1 [Compound 40] |  |
